We go through three compounds from publication PMC2789381, “Voltage-Dependent Modulation of Cardiac Ryanodine Receptors (RyR2) by Protamine” (PLoS ONE, 2009).

Several values for one entry are separate records, joined by “and”; a condition that tells them apart may be missing. Equal values may be shown once.

The target in the experiment is T1, cardiac RyR2 (Sus scrofa, UniProt A0A5G2R1W3).
T1 construct: from tissue; host or cells: pig heart ventricle (sarcoplasmic reticulum microsomes)
The experiment in a line: Single-channel recordings of RyR2 reconstituted into planar lipid bilayers. Type of experiment: biochemical, pig. As to conditions: for dwell time of ryanodol-induced events: Vm = +20 mV, n = 7, mean±SEM; for dwell time of ryanodol-induced events / slope conductance of the induced substate (I-V curve): SEM; for substate current level as % of the current through the full open channel / substate current level as % of the full open current: 1 µg/ml protamine, 10 µM ryanodol or 50 nM IpTxA, 10 µM cytosolic Ca2+/5 mM caffeine; for substate current level as % of the full open current: Vm = +40 mV; for slope conductance of the induced substate (I-V curve): fully active RyR2 (10 µM Ca2+/5 mM caffeine), full open state 129±1 pS, n = 10 protamine, 13 ryanodol, 5 IpTxA, mean±SEM. The text has this:
All procedures with animals were designed to minimize pain and suffering and conformed to the guidelines of the National Institutes of Health. The committee on the Use and Care of Laboratory Animals of Southern Illinois University School of Medicine reviewed and approved the protocols for animal use. Sarcoplasmic reticulum (SR) microsomes were obtained from pig heart ventricle using heart homogenization and ultracentrifugation steps that follow the procedures published by Chamberlain et al.. SR pellets obtained after high speed centrifugation were resuspended in 290 mM sucrose - 5 mM Imidazole buffer (pH = 7) and were aliquoted in cryovials (300 µl each) and kept in liquid nitrogen (better and safer long-term storage). Every month, a few cryovials are used to generate smaller aliquots of membranes (15 µl each) which were stored at –80°C for easy access. For experiments, aliquots were quickly thawed in water, kept on ice and used within 3–5 hours.
Reconstitution of RyR2 in planar lipid bilayers, was performed as previously described. Briefly, planar lipid bilayers were formed on 80 to 100 µm-diameter circular holes in teflon septa, separating two 1.3 ml compartments. The trans compartment was filled with HEPES-Ca^2+ solution containing HEPES 250 mM and Ca(OH)2 53 mM, pH 7.4. The trans compartment was clamped at 0 mV using an Axopatch 200B patch-clamp amplifier (Axon Instruments, Foster City, CA). The cis compartment (ground) was filled with HEPES-Tris solution containing HEPES 250 mM and TrisOH 118 mM, pH 7.4. Bilayers of a 5∶4∶1 mixture of bovine brain phosphatidylethanolamine, phosphatidylserine and phosphatidylcholine (45–50 mg/ml in decane) were painted onto the holes of teflon septa from the cis side. Sarcoplasmic reticulum microsomes (5–15 µg) were then added to the cis solution followed by 500–1000 mM CsCl and 1 mM CaCl2 to promote vesicle fusion. After RyR currents (or Cl^− currents >100 pA at 0 mV) were observed, the cis chamber was perfused with HEPES-TRIS solution for 5 min at 4 ml/min. A mixture of BAPTA and dibromo-BAPTA was used to buffer free [Ca^2+] on the cytosolic surface of the channel ([Ca^2+]cyt). As previously done, RyR channels were identified by current amplitudes (∼3.5 pA at 0 mV), slope conductance (∼100 pS), reversal potential (∼−45 mV, trans - cis) and response to diagnostic ligands (e.g., ryanodine, Ca^2+, ATP, caffeine and Ruthenium Red). RyR channel currents are depicted as positive (upward deflections of the current) in figures and reflect cation flux from the trans (lumenal) to the cis (cytosolic) compartment. Membrane voltages always represent the difference between trans - cis compartments (in mV).
Channel currents were first filtered through the Axopatch 200B low-pass Bessel filter at 2 kHz, digitized at 20 kHz with an analog to digital converter (Digidata 1320, Axon Instruments) and stored on DVD. Recordings were analyzed using pClamp9 software (Axon Instruments). Analysis with this program included open times, closed times and open probabilities (Po), which were determined by half-amplitude threshold analysis of single-channel recordings as done before.
Recordings were digitally filtered at 500 Hz in order to estimate the probabilities of substates using two different methods:
Frame by frame analysis (100 ms/frame) was performed using pClamp9 on each 4-min recording. […] The parameters (mean amplitude and duration) of each event were collected and averaged. The probability of substate occurrence, Psubstate, was estimated from the ratio: time spent in substate/total recording time. Pfull open was estimated as the fraction of time spent in the maximal current level (full opening).

T1 sequence (A0A5G2R1W3 20-4900): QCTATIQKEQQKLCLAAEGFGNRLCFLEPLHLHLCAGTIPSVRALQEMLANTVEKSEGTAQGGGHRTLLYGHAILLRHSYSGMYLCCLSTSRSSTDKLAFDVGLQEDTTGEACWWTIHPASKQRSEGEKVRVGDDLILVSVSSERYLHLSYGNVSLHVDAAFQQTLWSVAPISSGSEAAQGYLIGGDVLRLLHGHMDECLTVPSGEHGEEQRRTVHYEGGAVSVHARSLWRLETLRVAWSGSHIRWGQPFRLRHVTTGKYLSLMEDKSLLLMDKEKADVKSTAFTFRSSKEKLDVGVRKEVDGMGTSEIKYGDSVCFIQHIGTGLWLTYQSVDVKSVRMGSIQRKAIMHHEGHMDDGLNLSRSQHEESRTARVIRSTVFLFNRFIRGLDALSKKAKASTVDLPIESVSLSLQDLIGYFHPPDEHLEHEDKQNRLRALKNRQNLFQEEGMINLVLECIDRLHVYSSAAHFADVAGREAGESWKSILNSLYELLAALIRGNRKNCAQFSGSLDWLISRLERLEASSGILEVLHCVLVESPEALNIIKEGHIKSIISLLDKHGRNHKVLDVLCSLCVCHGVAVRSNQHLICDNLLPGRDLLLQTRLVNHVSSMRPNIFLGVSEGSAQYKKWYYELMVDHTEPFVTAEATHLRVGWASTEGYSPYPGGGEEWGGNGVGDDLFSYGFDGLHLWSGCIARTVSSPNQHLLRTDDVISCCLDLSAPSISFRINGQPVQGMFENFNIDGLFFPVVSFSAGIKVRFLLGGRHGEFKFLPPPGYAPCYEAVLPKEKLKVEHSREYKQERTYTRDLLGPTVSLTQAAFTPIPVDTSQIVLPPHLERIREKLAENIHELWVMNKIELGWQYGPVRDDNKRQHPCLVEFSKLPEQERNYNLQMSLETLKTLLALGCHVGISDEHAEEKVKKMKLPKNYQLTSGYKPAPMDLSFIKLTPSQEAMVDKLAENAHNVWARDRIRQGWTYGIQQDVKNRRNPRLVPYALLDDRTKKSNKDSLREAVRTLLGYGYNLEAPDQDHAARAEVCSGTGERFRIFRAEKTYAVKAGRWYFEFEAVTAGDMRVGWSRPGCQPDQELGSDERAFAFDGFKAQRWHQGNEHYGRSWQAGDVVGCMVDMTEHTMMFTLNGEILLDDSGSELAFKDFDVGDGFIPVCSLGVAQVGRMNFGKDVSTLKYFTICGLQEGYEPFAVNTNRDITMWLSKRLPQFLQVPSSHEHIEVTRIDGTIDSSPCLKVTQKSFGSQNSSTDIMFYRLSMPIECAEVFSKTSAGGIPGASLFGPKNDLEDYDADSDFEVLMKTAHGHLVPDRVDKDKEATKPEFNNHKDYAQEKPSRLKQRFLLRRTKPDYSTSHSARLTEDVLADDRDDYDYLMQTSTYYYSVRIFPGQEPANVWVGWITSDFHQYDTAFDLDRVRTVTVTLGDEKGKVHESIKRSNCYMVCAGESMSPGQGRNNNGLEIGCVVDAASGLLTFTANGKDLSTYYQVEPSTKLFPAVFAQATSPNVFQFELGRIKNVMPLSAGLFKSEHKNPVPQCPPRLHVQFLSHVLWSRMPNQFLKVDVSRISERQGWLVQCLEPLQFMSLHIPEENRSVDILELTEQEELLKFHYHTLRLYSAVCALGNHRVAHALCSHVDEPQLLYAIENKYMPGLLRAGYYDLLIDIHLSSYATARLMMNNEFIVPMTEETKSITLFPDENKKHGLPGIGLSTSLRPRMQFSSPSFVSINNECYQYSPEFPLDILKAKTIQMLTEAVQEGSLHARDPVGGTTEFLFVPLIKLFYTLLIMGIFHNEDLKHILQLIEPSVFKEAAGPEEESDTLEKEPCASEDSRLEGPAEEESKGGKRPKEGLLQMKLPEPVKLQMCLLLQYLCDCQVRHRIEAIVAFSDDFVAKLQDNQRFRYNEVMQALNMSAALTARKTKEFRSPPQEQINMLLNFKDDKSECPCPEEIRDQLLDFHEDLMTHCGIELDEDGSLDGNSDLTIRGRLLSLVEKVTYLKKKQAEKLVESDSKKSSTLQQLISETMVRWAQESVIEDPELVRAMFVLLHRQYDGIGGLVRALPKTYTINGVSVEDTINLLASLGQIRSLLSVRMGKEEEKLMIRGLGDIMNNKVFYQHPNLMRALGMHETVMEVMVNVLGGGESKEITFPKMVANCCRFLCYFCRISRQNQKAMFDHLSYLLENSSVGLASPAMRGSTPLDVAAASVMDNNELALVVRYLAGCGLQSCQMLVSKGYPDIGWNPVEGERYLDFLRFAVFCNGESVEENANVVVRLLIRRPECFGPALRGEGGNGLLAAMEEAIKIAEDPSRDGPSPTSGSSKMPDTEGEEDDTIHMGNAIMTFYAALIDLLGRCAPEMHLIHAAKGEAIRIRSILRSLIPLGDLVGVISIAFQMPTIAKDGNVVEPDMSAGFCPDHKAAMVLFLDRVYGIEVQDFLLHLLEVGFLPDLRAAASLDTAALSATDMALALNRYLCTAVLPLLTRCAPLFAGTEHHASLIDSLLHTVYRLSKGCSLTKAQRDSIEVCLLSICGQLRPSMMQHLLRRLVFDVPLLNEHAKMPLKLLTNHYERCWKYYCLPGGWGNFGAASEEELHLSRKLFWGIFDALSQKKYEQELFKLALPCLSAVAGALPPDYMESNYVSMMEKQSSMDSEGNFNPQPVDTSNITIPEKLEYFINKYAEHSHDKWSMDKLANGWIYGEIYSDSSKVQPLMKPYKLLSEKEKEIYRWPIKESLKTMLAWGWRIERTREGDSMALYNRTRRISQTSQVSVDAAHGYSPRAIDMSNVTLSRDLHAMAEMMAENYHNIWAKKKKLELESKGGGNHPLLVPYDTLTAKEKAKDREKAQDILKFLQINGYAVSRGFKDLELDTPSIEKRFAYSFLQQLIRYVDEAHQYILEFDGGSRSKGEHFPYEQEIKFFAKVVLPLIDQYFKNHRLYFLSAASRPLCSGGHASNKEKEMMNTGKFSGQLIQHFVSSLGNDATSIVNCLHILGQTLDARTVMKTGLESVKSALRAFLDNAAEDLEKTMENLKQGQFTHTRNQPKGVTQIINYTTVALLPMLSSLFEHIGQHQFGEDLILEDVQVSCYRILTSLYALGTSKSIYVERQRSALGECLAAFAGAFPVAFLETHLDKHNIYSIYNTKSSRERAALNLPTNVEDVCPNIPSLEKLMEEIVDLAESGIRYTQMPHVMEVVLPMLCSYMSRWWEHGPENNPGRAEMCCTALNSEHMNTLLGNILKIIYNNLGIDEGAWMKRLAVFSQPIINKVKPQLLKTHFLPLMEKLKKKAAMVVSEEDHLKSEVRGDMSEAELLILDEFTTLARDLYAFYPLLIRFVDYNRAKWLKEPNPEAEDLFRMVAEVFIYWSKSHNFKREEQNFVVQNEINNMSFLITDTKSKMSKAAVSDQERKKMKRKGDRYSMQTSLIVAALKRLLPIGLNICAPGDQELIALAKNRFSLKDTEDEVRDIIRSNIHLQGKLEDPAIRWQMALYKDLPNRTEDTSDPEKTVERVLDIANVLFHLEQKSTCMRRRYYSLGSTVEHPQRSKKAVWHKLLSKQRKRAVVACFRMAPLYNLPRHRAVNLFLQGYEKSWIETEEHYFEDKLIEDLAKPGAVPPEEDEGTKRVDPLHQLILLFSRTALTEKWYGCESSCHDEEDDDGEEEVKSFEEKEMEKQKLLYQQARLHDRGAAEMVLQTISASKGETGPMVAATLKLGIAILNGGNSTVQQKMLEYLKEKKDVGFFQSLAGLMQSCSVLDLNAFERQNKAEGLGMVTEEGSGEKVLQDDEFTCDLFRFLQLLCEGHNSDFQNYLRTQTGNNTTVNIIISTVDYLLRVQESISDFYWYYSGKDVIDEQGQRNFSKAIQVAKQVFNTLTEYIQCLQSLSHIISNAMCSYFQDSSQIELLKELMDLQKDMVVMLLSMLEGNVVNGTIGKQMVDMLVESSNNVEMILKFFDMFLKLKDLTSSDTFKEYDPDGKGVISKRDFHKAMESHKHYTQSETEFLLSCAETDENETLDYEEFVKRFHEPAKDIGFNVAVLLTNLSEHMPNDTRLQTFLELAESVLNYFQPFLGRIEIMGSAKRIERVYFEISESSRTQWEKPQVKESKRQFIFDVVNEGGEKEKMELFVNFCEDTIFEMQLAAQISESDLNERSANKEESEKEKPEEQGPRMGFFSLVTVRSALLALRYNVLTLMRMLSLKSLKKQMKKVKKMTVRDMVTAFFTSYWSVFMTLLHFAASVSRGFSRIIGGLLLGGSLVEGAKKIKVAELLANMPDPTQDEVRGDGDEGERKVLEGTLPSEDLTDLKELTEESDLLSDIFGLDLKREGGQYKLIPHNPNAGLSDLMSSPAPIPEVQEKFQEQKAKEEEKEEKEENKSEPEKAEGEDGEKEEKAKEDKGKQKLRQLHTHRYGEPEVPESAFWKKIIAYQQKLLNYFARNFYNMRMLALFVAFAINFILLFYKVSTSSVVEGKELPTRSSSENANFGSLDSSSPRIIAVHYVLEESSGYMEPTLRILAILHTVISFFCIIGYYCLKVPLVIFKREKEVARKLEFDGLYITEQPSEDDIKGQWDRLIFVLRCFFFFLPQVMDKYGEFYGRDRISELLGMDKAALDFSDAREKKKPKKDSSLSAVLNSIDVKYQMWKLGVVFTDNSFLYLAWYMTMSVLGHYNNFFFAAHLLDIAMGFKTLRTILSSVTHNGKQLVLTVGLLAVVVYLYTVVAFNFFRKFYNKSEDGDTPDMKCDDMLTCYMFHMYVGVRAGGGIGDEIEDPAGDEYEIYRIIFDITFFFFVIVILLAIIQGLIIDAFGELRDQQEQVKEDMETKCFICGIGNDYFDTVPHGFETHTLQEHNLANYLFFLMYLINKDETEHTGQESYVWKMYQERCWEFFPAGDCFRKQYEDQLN

With `CC(C)[C@@]1(O)[C@@H](O)[C@@]2(O)[C@@]3(C)C[C@]4(O)O[C@@]5([C@H](O)[C@@H](C)CC[C@]35O)[C@@]2(O)[C@]14C` [ryanodol, Ryanodol], the “substate current level as % of the full open current” value is listed as “same proportions” and the “slope conductance of the induced substate (I-V curve)” value is 56±2 pS. For the same compound, the “dwell time of ryanodol-induced events” value (10 µM ryanodol + 1 µg/ml protamine + 250 µg/ml heparin) stood at 3.4 ± 0.5 s. The “dwell time of ryanodol-induced events” value (10 µM ryanodol + 1 µg/ml protamine) was 11 ± 3 s and 11.3 ± 2.5 s. Besides, the “dwell time of ryanodol-induced events” value (10 µM ryanodol alone) was determined as 3.7 ± 0.7 s. For the same compound, the “substate current level as % of the current through the full open channel” value (Vm = 0 mV) was ~45%.

In the case of heparin, the “open probability (Po) after addition of heparin” value (250 µg/ml heparin after 1 µg/ml protamine, 100 nM cytosolic Ca2+, Vm = 20 mV, n = 5) is on record as 0.009±0.006. In addition, the “effect of subsequent heparin addition on protamine-modified RyR2” value (250 µg/ml heparin after 20 µg/ml protamine, Vm = 0 mV) was “reversed the effect of protamine”.

Take Imperatoxin A [IpTxA]: the “substate current level as % of the full open current” value is given as “same proportions” and the “slope conductance of the induced substate (I-V curve)” value was 43±3 pS. Also, the “effect of IpTxA on RyR2 behavior when protamine is present” value (50 nM IpTxA + 1 µg/ml protamine, fully activated RyR2) is listed as “little or no effect”. Further, the “substate current level as % of the current through the full open channel” value (Vm = 0 mV) is ~33%.
